From PubChem BioAssay AID1963974 (Molecular Pharmacology Branch, DTP, NCI, 2024)

Tested on: 648629-189-R-J1-PDC spheroids with HUVEC/MSC, viability
Assay: Anticancer human tumor 648629-189-R-J1-PDC patient-derived bladder carcinoma cell line growth inhibition [PI3K]
Conditions: for viability, T/C: stronger effect = lower value
Outline: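 Tumor cells were combined with HUVEC and MSCs into spheroids, then dosed with PI3K-inhibitor combinations over half-log ranges capped near clinical Cmax or 10 microM.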

[1] = curve of first compound, second compound 0.00316 µM
[2] = curve of first compound, second compound 0.01 µM
[3] = curve of first compound, second compound 0.0316 µM
[4] = curve of first compound, second compound 0.1 µM
[5] = curve of first compound, second compound 0.316 µM
[6] = curve of first compound, second compound 1 µM
[7] = second compound 0.00316 µM, first compound 0.0316 µM
[8] = second compound 0.00316 µM, first compound 0.1 µM
[9] = second compound 0.00316 µM, first compound 0.316 µM
[10] = second compound 0.00316 µM, first compound 1 µM
[11] = second compound 0.00316 µM, first compound 3.16 µM
[12] = second compound 0.00316 µM, first compound 10 µM
[13] = second compound 0.01 µM, first compound 0.0316 µM
[14] = second compound 0.01 µM, first compound 0.1 µM
[15] = second compound 0.01 µM, first compound 0.316 µM
[16] = second compound 0.01 µM, first compound 1 µM
[17] = second compound 0.01 µM, first compound 3.16 µM
[18] = second compound 0.01 µM, first compound 10 µM
[19] = second compound 0.0316 µM, first compound 0.0316 µM
[20] = second compound 0.0316 µM, first compound 0.1 µM
[21] = second compound 0.0316 µM, first compound 0.316 µM
[22] = second compound 0.0316 µM, first compound 1 µM
[23] = second compound 0.0316 µM, first compound 3.16 µM
[24] = second compound 0.0316 µM, first compound 10 µM
[25] = second compound 0.1 µM, first compound 0.0316 µM
[26] = second compound 0.1 µM, first compound 0.1 µM
[27] = second compound 0.1 µM, first compound 0.316 µM
[28] = second compound 0.1 µM, first compound 1 µM
[29] = second compound 0.1 µM, first compound 3.16 µM
[30] = second compound 0.1 µM, first compound 10 µM
[31] = second compound 0.316 µM, first compound 0.0316 µM
[32] = second compound 0.316 µM, first compound 0.1 µM
[33] = second compound 0.316 µM, first compound 0.316 µM
[34] = second compound 0.316 µM, first compound 1 µM
[35] = second compound 0.316 µM, first compound 3.16 µM
[36] = second compound 0.316 µM, first compound 10 µM
[37] = second compound 1 µM, first compound 0.0316 µM
[38] = second compound 1 µM, first compound 0.1 µM
[39] = second compound 1 µM, first compound 0.316 µM
[40] = second compound 1 µM, first compound 1 µM
[41] = second compound 1 µM, first compound 3.16 µM
[42] = second compound 1 µM, first compound 10 µM
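Also: spheroids exposed to agents for seven days before reading.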
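For viability, T/C in this document: percent of vehicle control luminescence where 100% = DMSO treated spheroids.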

Cn1ncc(Cl)c1-c1cc(C(=O)NC(CN)Cc2cccc(F)c2)sc1Cl (stereo not given)
viability, T/C (compound 0.0316 µM): 111% [middle of 4 runs] | viability, T/C (compound 0.1 µM): 86.8% [middle of 4 runs] | viability, T/C (compound 0.316 µM): 72.9% [middle of 4 runs] | viability, T/C (compound 1 µM): 35.3% [middle of 4 runs] | viability, T/C (compound 3.16 µM): 25% [middle of 4 runs] | IC50 (curve of compound): 818 nM [middle of 4 runs]

C=CC(=O)N1CCN(c2nc(=O)n(-c3c(C)ccnc3C(C)C)c3nc(-c4c(O)cccc4F)c(F)cc23)C(C)C1 (stereo not given) + CC(Nc1ccc2c(c1)OCCn1cc(N3C(=O)OCC3C(F)F)nc1-2)C(N)=O
IC50 [1]: > 10000 nM | IC50 [2]: > 10000 nM | IC50 [3]: > 10000 nM | IC50 [4]: > 10000 nM | IC50 [5]: > 10000 nM | IC50 [6]: > 10000 nM | viability, T/C [7]: 111% | viability, T/C [8]: 99.1% | viability, T/C [9]: 117% | viability, T/C [10]: 105% | viability, T/C [11]: 106% | viability, T/C [12]: 92.3% | viability, T/C [13]: 121% | viability, T/C [14]: 106% | viability, T/C [15]: 111% | viability, T/C [16]: 114% | viability, T/C [17]: 115% | viability, T/C [18]: 92.3% | viability, T/C [19]: 101% | viability, T/C [20]: 108% | viability, T/C [21]: 98.2% | viability, T/C [22]: 106% | viability, T/C [23]: 123% | viability, T/C [24]: 92.5% | viability, T/C [25]: 92.4% | viability, T/C [26]: 106% | viability, T/C [27]: 107% | viability, T/C [28]: 115% | viability, T/C [29]: 103% | viability, T/C [30]: 92.5% | viability, T/C [31]: 92.6% | viability, T/C [32]: 93.1% | viability, T/C [33]: 84.1% | viability, T/C [34]: 95.2% | viability, T/C [35]: 84.5% | viability, T/C [36]: 78.1% | viability, T/C [37]: 73.1% | viability, T/C [38]: 71.9% | viability, T/C [39]: 73.5% | viability, T/C [40]: 80.7% | viability, T/C [41]: 91.8% | viability, T/C [42]: 66.2%

CC(C)NCC(C(=O)N1CCN(c2ncnc3c2C(C)CC3O)CC1)c1ccc(Cl)cc1 (stereo not given) + COc1c(OCCCN2CCOCC2)ccc2c3n(c(=NC(=O)c4cnc(N)nc4)nc12)CCN3
IC50 [1]: 901 nM | IC50 [2]: 1030 nM | IC50 [3]: 698 nM | IC50 [4]: 144 nM | IC50 [5]: < 31.6 nM | IC50 [6]: < 31.6 nM | viability, T/C [7]: 90.2% | viability, T/C [8]: 91.7% | viability, T/C [9]: 79% | viability, T/C [10]: 45.4% | viability, T/C [11]: 26.1% | viability, T/C [12]: 14.3% | viability, T/C [13]: 102% | viability, T/C [14]: 73.5% | viability, T/C [15]: 75.1% | viability, T/C [16]: 54% | viability, T/C [17]: 26.2% | viability, T/C [18]: 13.3% | viability, T/C [19]: 77.7% | viability, T/C [20]: 77.6% | viability, T/C [21]: 67.1% | viability, T/C [22]: 40.5% | viability, T/C [23]: 24.6% | viability, T/C [24]: 11.6% | viability, T/C [25]: 60.1% | viability, T/C [26]: 51.3% | viability, T/C [27]: 45% | viability, T/C [28]: 27% | viability, T/C [29]: 16.9% | viability, T/C [30]: 8.23% | viability, T/C [31]: 19.3% | viability, T/C [32]: 18.4% | viability, T/C [33]: 14.6% | viability, T/C [34]: 12% | viability, T/C [35]: 7.28% | viability, T/C [36]: 2.74% | viability, T/C [37]: 2.91% | viability, T/C [38]: 2.63% | viability, T/C [39]: 3.85% | viability, T/C [40]: 3% | viability, T/C [41]: 2.11% | viability, T/C [42]: 0.84%
